In US11390900B2, “Antimicrobial cartridges and processes for multiplexed antimicrobial susceptibility testing” (priority 2018, dated 2022):
Where two headings read alike, the source gives them in different places.

Assays:
[1] = system: patient sample microbes; test: AST MIC results for antimicrobial panel 2 (384-well panel from Master Plate vs 96-well panel); format: cell-based; details: for MICs obtained from panel made from Master Plate: antimicrobial panel 2, 384 well patient cartridge; for MICs obtained from 96-well Antibiotic Panel: antimicrobial panel 2, standard 96 well AST assay plate
From the text: (§1) An assay setup comprises preparation of patient (target) cartridge by dispensing antimicrobials were from the master cartridge or intermediate serial dilution cartridges into one or more 384 reservoir patient cartridge, each antimicrobial in about 7 serial dilutions in triplicate, and covering the dynamic range of each antimicrobial that is known to be effective and therefore should be reported. The dilution range included the expected minimum inhibitory concentration (MIC) for each antimicrobial. But most importantly, dilution ranges, that is, antimicrobial concentrations beyond the range known to be effective are included in the patient cartridge as per the present invention.
(§2) The remaining reservoirs of the 384 well patient cartridge are utilized for setting up test controls: a no-antimicrobial control (negative control) was included for each antimicrobial compound; and a positive control was included for each antimicrobial set, where a microorganism that is not susceptible to the antimicrobial was added to the well. Each control set was also dispensed at least in duplicate per 384 well cartridge. Additional test controls may be included as deemed necessary by one of skill in the art. Equal amount of a patient sample was dispensed to each of the wells in the cartridge, except in the wells designated for no-sample control, if included. The patient cartridge was ready for determination of susceptibility of microbes from the patient sample to the twelve antimicrobials at the range of concentrations applied, simultaneously. Multiple such plates can be set up in parallel for testing samples from multiple patients, each patient sample per plate. An AST assay was performed on the prepared patient cartridges.
(§3) First, three master plates are loaded by the user onto chilled plate holders (set to 4° C.). These consist of one Broad Spectrum, one Gram-Positive and one Gram-Negative antibiotic plate. Next the bulk reagents and pipette tips are loaded on tube rack. Master and bulk reagent pipette tips and sample dilution tray are reloaded every 12 samples. For every set of tests, up to four Patient Samples in tubes and up to four 384-well Target Plates (Patient plate) are loaded.
(§4) Antibiotics are transferred from Broad Spectrum Master Plate to Target Plate(s). Antibiotics are “stamped” according to FIG. 10A-B. The inoculator tips should be placed back in the same position of the Broad Spectrum Tip Box for use on subsequent target plates, but should only be used for same antibiotics to avoid cross contamination.
(§5) Antimicrobials are transferred from Gram-Positive OR Gram-Negative Master Plate to Target Plate(s) and the antibiotics are “stamped” according to FIG. 11A-B. The inoculator should place tips back in the same position of the correct tip box for use on subsequent target plates. Good care is taken such that any cross contamination is prevented.
(§6) Using new tips from the Sample Tip Box, 50 μL of diluted patient sample are transferred into Target Plate according to Table Four, this is done with a “jet dispense” to avoid cross contamination. After the Patient Sample has been transferred to each well on the Target Plate, the tips should be disposed of to avoid cross contamination. The above steps are repeated for each additional Patient Sample and Target Plate.
(§7) Shown in Table 6 and Table 7, MIC results for antimicrobial panels 1 and 2 respectively using a master cartridge format and a 384 well patient cartridge (column 3) agrees reliably with that run by standard 96 well AST assay plate (right hand column).

[2] = system: patient sample microbes; details: antimicrobial panel 2, MIC range; cited from earlier work
[3] = system: patient sample microbes; test: AST MIC results for antimicrobial panel 1 (384-well panel from Master Plate vs 96-well panel); format: cell-based; details: for MICs obtained from panel made from Master Plate: antimicrobial panel 1, 384 well patient cartridge; for MICs obtained from 96-well Antibiotic Panel: antimicrobial panel 1, standard 96 well AST assay plate
From the text: as §1, §2, §3, §4, §5, §6, §7

[4] = system: patient sample microbes; details: antimicrobial panel 1, MIC range; cited from earlier work
[5] = system: E. coli 25922; details: MIC range, E. coli 25922, Gram negative panel; cited from earlier work
[6] = system: E. faecalis 29212; details: cited from earlier work; for CLSI-Defined QC Range: MIC range; for CLSI-Defined QC Range, screen result: E. faecalis 29212, no growth @ 100 48 hrs (streptomycin), @ 500 24 hrs (gentamicin)
[7] = system: K. pneumoniae 700603; details: MIC range, K. pneumoniae 700603, Gram negative panel; cited from earlier work
[8] = system: S. aureus 43300; details: growth @ 4; cited from earlier work
[9] = system: S. aureus 29213; details: cited from earlier work; for CLSI-Defined QC Range, screen result: S. aureus 29213, no growth @ 0.5/4 (Cli/Ery), @ 4 (cefoxitin), @ 256 (mupirocin)
[10] = system: S. aureus BAA-1708; details: growth @ 256; cited from earlier work
[11] = system: E. faecalis 51299; details: growth @ 100 (streptomycin), @ 500 (gentamicin); cited from earlier work
[12] = E. faecalis 29212, Gram positive panel

Molecule | MICs obtained from panel made from Master Plate [1] [µg/mL] | MICs obtained from 96-well Antibiotic Panel [1] [µg/mL] | Quality Control Range [2] | MICs obtained from panel made from Master Plate [3] [µg/mL] | MICs obtained from 96-well Antibiotic Panel [3] [µg/mL] | Quality Control Range [4] | CLSI-Defined QC Range [5] [µg/mL] | CLSI-Defined QC Range [6, 12] [µg/mL] | CLSI-Defined QC Range [7] [µg/mL] | CLSI-Defined QC Range, screen result [9] | CLSI-Defined QC Range, screen result [6] | CLSI-Defined QC Range, screen result [11] | other results
CC1(C)S[C@@H]2[C@H](NC(=O)[C@H](N)c3ccccc3)C(=O)N2[C@H]1C(=O)O [Ampicillin] | 1 | 1 | 0.5-2 | 4 | 8 | 2-8 | 2 to 8 | 0.5 to 2 | >128 |  |  |  | 
CO[C@@]1(NC(=O)Cc2cccs2)C(=O)N2C(C(=O)O)=C(COC(N)=O)CS[C@@H]21 [Cefoxitin] |  |  |  |  |  |  | 2 to 8 |  |  | Negative (No growth |  |  | CLSI-Defined QC Range, screen result [8]: Positive (Growth @
CC(C)(O/N=C(\C(=O)N[C@@H]1C(=O)N2C(C(=O)[O-])=C(C[n+]3ccccc3)CS[C@H]12)c1csc(N)n1)C(=O)O [Ceftazidime] | 4 | 8 | 4-16 | ≤ 1 | 0.25 | 0.06-0.5 |  |  | 16 to 64 |  |  |  | CLSI-Defined QC Range ([9]; MIC range, S. aureus 29213, Gram negative panel): 4 to 16 µg/mL
C/C(=C\C(=O)OCCCCCCCCC(=O)O)C[C@@H]1OC[C@H](C[C@@H]2O[C@H]2[C@@H](C)[C@H](C)O)[C@@H](O)[C@H]1O [Mupirocin High Level Screen, Mupirocin] |  |  |  |  |  |  |  |  |  | Negative (No growth |  |  | CLSI-Defined QC Range, screen result [10]: Positive (Growth @
[H]/N=C(/N)N[C@H]1[C@H](O)[C@@H](O)[C@H](O[C@@H]2O[C@@H](C)[C@](O)(C=O)[C@H]2O[C@@H]2O[C@@H](CO)[C@H](O)[C@@H](O)[C@@H]2NC)[C@@H](N/C(N)=N\[H])[C@@H]1O [Streptomycin High Level Screen, Streptomycin] |  |  |  |  |  |  |  |  |  |  | Negative (No growth | Positive (Growth @ | 
Gentamicin |  |  |  |  |  |  |  | 4 to 16 |  |  | Negative (No growth | Positive (Growth @ | CLSI-Defined QC Range ([6]; E. faecalis 29212, Gram negative panel): 4 to 16 µg/mL
